Source: patent US10709744B1, “Probiotic biofilm suppositories” (priority 2019, dated 2020)
≈ marks a conversion by molar mass, not a printed value. Read-outs that look alike come from different tables or passages of the source.

How the values were obtained:
Type in all cases: cell-based
[1] = tested on: LP Bacteria in form of biofilm; test: Effect of additives (cranberries, ascorbic acid) on Bacteria in form of biofilm survival and growth
Text: High vaginal pH is associated with an increase of vaginal pathogens and the acidity of the vagina has long been understood to be a protective mechanism against colonization of anaerobes pathogens while creating a favourable environment for the lactobacilli to thrive. Examining the effect of different additives (cranberries and ascorbic acid) on Bacteria in form of biofilm LP (as part of a small scale). […] The aim is to add one of these additives along with the Bacteria in form of biofilm in the suppository composition. As such, their effect on Bacteria in form of biofilm survival and growth was tested.

Lactobacillus iners = test: Antibiotic MIC strip assay, planktonic LI
Method: (§1) For antibiotic assay, and overnight culture was diluted to an optical start density (OD) of 0.13. […] Plates were incubated at 37° C. for 24 h before minimum inhibitory concentration (MIC) value were determined.

Lactobacillus jensenii = test: Antibiotic MIC strip assay, planktonic LJ; conditions: for MIC: Lactobacillus jensenii
Method: as §1

Lactobacillus crispatus = test: Antibiotic MIC strip assay, planktonic LCr; conditions: for MIC: Lactobacillus crispatus
Method: as §1

Lactobacillus gasseri = test: Antibiotic MIC strip assay, planktonic LG; conditions: for MIC: Lactobacillus gasseri
Method: as §1

Lactobacillus rhamnosus = test: Antibiotic MIC strip assay, planktonic LRh
Method: as §1

[2] = planktonic LI, MIC strips, 24 h 37° C., read-out: MIC
[3] = planktonic LJ, MIC strips, 24 h 37° C., read-out: MIC
[4] = planktonic LCr, MIC strips, 24 h 37° C., read-out: MIC
[5] = planktonic LG, MIC strips, 24 h 37° C., read-out: MIC
[6] = Lacticaseibacillus rhamnosus, planktonic LRh, Table 7, read-out: MIC
[7] = Lacticaseibacillus rhamnosus, planktonic LRh, read-out: MIC

| MIC (Lactobacillus iners; [2]) [µg/mL] | MIC (Lactobacillus jensenii; [3]) [µg/mL] | MIC (Lactobacillus crispatus; [4]) [µg/mL] | MIC (Lactobacillus gasseri; [5]) [µg/mL] | MIC (Lactobacillus rhamnosus; [6]) [µg/mL] | MIC (Lactobacillus rhamnosus; [7]) [µg/mL] | Compound | further results |
| --- | --- | --- | --- | --- | --- | --- | --- |
| 64 (≈ 169 µM) | 8 (≈ 21.1 µM) | 4 (≈ 10.6 µM) | 4 (≈ 10.6 µM) | 4 (≈ 10.6 µM) | 4 (≈ 10.6 µM) | CC1(C)S[C@@H]2[C@H](NC(=O)C(C(=O)O)c3ccccc3)C(=O)N2[C@H]1C(=O)O (stereo partly drawn) [CB, carbenicillin] | – |
| – | > 256 | > 256 | > 256 | 2 (≈ 6.04 µM) | 0.25 (≈ 0.754 µM) | O=C(O)c1cn(C2CC2)c2cc(N3CCNCC3)c(F)cc2c1=O [CIP, ciprofloxacin] | susceptibility of planktonic bacteria to antibiotic (Lactobacillus jensenii; planktonic LJ): not susceptible; susceptibility of planktonic bacteria to antibiotic (Lactobacillus crispatus; planktonic LCr): not susceptible; susceptibility of planktonic bacteria to antibiotic (Lactobacillus gasseri; planktonic LG): full resistance |
| 16 (≈ 26.1 µM) | 2 (≈ 3.26 µM) | 2 (≈ 3.26 µM) | 2 (≈ 3.26 µM) | 2 (≈ 3.26 µM) | 2 (≈ 3.26 µM) | CO[C@@H]1[C@@H](OC(N)=O)[C@@H](O)[C@H](Oc2ccc3c(O)c(NC(=O)c4ccc(O)c(CC=C(C)C)c4)c(=O)oc3c2C)OC1(C)C [NVB, novobiocin] | – |

Further lines, the compound ahead of its results:

| Compound | MIC (Lactobacillus iners; [2]) [µg/mL] | MIC (Lactobacillus jensenii; [3]) [µg/mL] | MIC (Lactobacillus crispatus; [4]) [µg/mL] | MIC (Lactobacillus gasseri; [5]) [µg/mL] | MIC (Lactobacillus rhamnosus; [6]) [µg/mL] | MIC (Lactobacillus rhamnosus; [7]) [µg/mL] | further results |
| --- | --- | --- | --- | --- | --- | --- | --- |
| O=C1O[C@H]([C@@H](O)CO)C(O)=C1O [AA, Ascorbic Acid] | – | – | – | – | – | – | effect of addition of supplement on Bacteria in form of biofilm growth [1]: did not affect |
| CN[C@H](CC(C)C)C(=O)N[C@H]1C(=O)N[C@@H](CC(N)=O)C(=O)N[C@H]2C(=O)N[C@H]3C(=O)N[C@H](C(=O)N[C@H](C(=O)O)c4cc(O)cc(O)c4-c4cc3ccc4O)[C@H](O)c3ccc(c(Cl)c3)Oc3cc2cc(c3O[C@@H]2O[C@H](CO)[C@@H](O)[C@H](O)[C@H]2O[C@H]2C[C@](C)(N)[C@H](O)[C@H](C)O2)Oc2ccc(cc2Cl)[C@H]1O [VAN, vancomycin] | – | – | – | – | – | – | MIC (Lactobacillus iners; 24 h): 4 µg/mL (≈ 2.76 µM); MIC (Lactobacillus jensenii; 24 h): 1.5 µg/mL (≈ 1.04 µM); MIC (Lactobacillus crispatus; 24 h): 1.5 µg/mL (≈ 1.04 µM); MIC (Lactobacillus gasseri; 24 h): 1.5 µg/mL (≈ 1.04 µM); MIC (Lactobacillus rhamnosus; Lacticaseibacillus rhamnosus): > 256 µg/mL; MIC (Lactobacillus rhamnosus; planktonic LRh, Table 7): >256 µg/mL |
